# From ChEMBL document CHEMBL1255421, “In vitro fungicidal activities of echinocandins against Candida metapsilosis, C. orthopsilosis, and C. parapsilosis evaluated by time-kill studies” (2010)
# Active and inactive are the calls of the source. No cut-off for these calls is given here. Numbered stars: 1 amine (or outer) side, 2 acyl side, 3 side chain; on linkers, the order of the positions; unused ones are H or OH. Bridge positions count the residues as written; N and C are the ends. Square brackets hold non-standard residues; d marks the D form. Peptide text beside a SMILES is read from it. * marks the point of attachment. pTerphenylCO(4''-OnC5H11) = CCCCCOc1ccc(-c2ccc(-c3ccc(C(=O)*)cc3)cc2)cc1; Orn(4R-OH,5R-OH) = O=C([C@H](C[C@@H](O)[C@@H](O)N[*:3])N[*:1])[*:2]; hTyr(3S-OH,4S-OH) = N[C@H](C(=O)O)[C@H](O)[C@@H](O)c1ccc(O)cc1; Pro(3S-OH,4S-Me) = C[C@H]1CN[C@H](C(=O)O)[C@H]1O; Hyp = O=C(O)[C@@H]1C[C@@H](O)CN1
# Legend:
# [1] = system: Candida orthopsilosis; test: Antifungal activity against Candida orthopsilosis clinical isolate bloodstream form assessed as time required for 99.9% reduction in fungal growth at 0.25 mg/L by time-kill assay; type: functional
# [2] = system: Candida orthopsilosis; test: Antifungal activity against Candida orthopsilosis clinical isolate bloodstream form assessed as time required for 99.9% reduction in fungal growth at 4 mg/L by time-kill assay; type: functional
# [3] = system: Candida orthopsilosis; test: Antifungal activity against Candida orthopsilosis clinical isolate bloodstream form assessed as time required for 99.9% reduction in fungal growth at 16 mg/L by time-kill assay; type: functional
# [4] = system: Candida metapsilosis; test: Antifungal activity against Candida metapsilosis clinical isolate bloodstream form assessed as time required for 50% reduction in fungal growth at 0.25 mg/L by time-kill assay; type: functional
# [5] = system: Candida metapsilosis; test: Antifungal activity against Candida metapsilosis clinical isolate bloodstream form assessed as time required for 50% reduction in fungal growth at 4 mg/L by time-kill assay; type: functional
# [6] = system: Candida metapsilosis; test: Antifungal activity against Candida metapsilosis clinical isolate bloodstream form assessed as time required for 50% reduction in fungal growth at 16 mg/L by time-kill assay; type: functional
# [7] = system: Candida metapsilosis; test: Antifungal activity against Candida metapsilosis clinical isolate bloodstream form assessed as time required for 90% reduction in fungal growth at 0.25 mg/L by time-kill assay; type: functional
# [8] = system: Candida metapsilosis; test: Antifungal activity against Candida metapsilosis clinical isolate bloodstream form assessed as time required for 90% reduction in fungal growth at 1 mg/L by time-kill assay; type: functional
# [9] = system: Candida metapsilosis; test: Antifungal activity against Candida metapsilosis clinical isolate bloodstream form assessed as time required for 90% reduction in fungal growth at 4 mg/L by time-kill assay; type: functional
# [10] = system: Candida metapsilosis; test: Antifungal activity against Candida metapsilosis clinical isolate bloodstream form assessed as time required for 90% reduction in fungal growth at 32 mg/L by time-kill assay; type: functional
# [11] = system: Candida metapsilosis; test: Antifungal activity against Candida metapsilosis clinical isolate bloodstream form assessed as time required for 99% reduction in fungal growth at 1 mg/L by time-kill assay; type: functional
# [12] = system: Candida metapsilosis; test: Antifungal activity against Candida metapsilosis clinical isolate bloodstream form assessed as time required for 99% reduction in fungal growth at 4 mg/L by time-kill assay; type: functional
# [13] = system: Candida metapsilosis; test: Antifungal activity against Candida metapsilosis clinical isolate bloodstream form assessed as time required for 99.9% reduction in fungal growth at 0.25 mg/L by time-kill assay; type: functional
# [14] = system: Candida metapsilosis; test: Antifungal activity against Candida metapsilosis clinical isolate bloodstream form assessed as time required for 99.9% reduction in fungal growth at 16 mg/L by time-kill assay; type: functional
# [15] = system: Candida metapsilosis; test: Antifungal activity against Candida metapsilosis clinical isolate bloodstream form assessed as time required for 99.9% reduction in fungal growth at 32 mg/L by time-kill assay; type: functional
# [16] = system: Candida parapsilosis; test: Antifungal activity against Candida parapsilosis clinical isolate bloodstream form assessed as time required for 50% reduction in fungal growth at 0.25 mg/L by time-kill assay; type: functional
# [17] = system: Candida parapsilosis; test: Antifungal activity against Candida parapsilosis clinical isolate bloodstream form assessed as time required for 50% reduction in fungal growth at 16 mg/L by time-kill assay; type: functional
# [18] = system: Candida parapsilosis; test: Antifungal activity against Candida parapsilosis clinical isolate bloodstream form assessed as time required for 50% reduction in fungal growth at 32 mg/L by time-kill assay; type: functional
# [19] = system: Candida parapsilosis; test: Antifungal activity against Candida parapsilosis clinical isolate bloodstream form assessed as time required for 90% reduction in fungal growth at 1 mg/L by time-kill assay; type: functional
# [20] = system: Candida parapsilosis; test: Antifungal activity against Candida parapsilosis clinical isolate bloodstream form assessed as time required for 90% reduction in fungal growth at 16 mg/L by time-kill assay; type: functional
# [21] = system: Candida parapsilosis; test: Antifungal activity against Candida parapsilosis clinical isolate bloodstream form assessed as time required for 99% reduction in fungal growth at 0.25 mg/L by time-kill assay; type: functional
# [22] = system: Candida parapsilosis; test: Antifungal activity against Candida parapsilosis clinical isolate bloodstream form assessed as time required for 99% reduction in fungal growth at 1 mg/L by time-kill assay; type: functional
# [23] = system: Candida parapsilosis; test: Antifungal activity against Candida parapsilosis clinical isolate bloodstream form assessed as time required for 99.9% reduction in fungal growth at 0.25 mg/L by time-kill assay; type: functional
# [24] = system: Candida parapsilosis; test: Antifungal activity against Candida parapsilosis clinical isolate bloodstream form assessed as time required for 99.9% reduction in fungal growth at 1 mg/L by time-kill assay; type: functional
# [25] = system: Candida parapsilosis; test: Antifungal activity against Candida parapsilosis clinical isolate bloodstream form assessed as time required for 99.9% reduction in fungal growth at 4 mg/L by time-kill assay; type: functional
# [26] = system: Candida metapsilosis; test: Antifungal activity against Candida metapsilosis clinical isolate bloodstream form assessed as time required for 99.9% reduction in fungal growth at 1 mg/L by time-kill assay; type: functional
# [27] = system: Candida orthopsilosis; test: Fungicidal activity against Candida orthopsilosis isolate CP-131 bloodstream form by CLSI method; type: functional; conditions: Lodderomyces orthopsilosis
# [28] = system: Candida metapsilosis; test: Fungicidal activity against Candida metapsilosis isolate CP-132 bloodstream form by CLSI method; type: functional; conditions: Lodderomyces metapsilosis
# [29] = system: Candida metapsilosis; test: Fungicidal activity against Candida metapsilosis isolate CP-133 bloodstream form by CLSI method; type: functional; conditions: Lodderomyces metapsilosis
# [30] = system: Candida metapsilosis; test: Fungicidal activity against Candida metapsilosis isolate ATC193 bloodstream form by CLSI method; type: functional; conditions: Lodderomyces metapsilosis, isolate ATC-193
# [31] = system: Candida parapsilosis; test: Antifungal activity against Candida parapsilosis clinical isolate bloodstream form assessed as inhibition of fungal regrowth at 0.03 to 32 mg/L after 6 hrs by time-kill assay; type: functional, organism-based
# [32] = system: Candida orthopsilosis; test: Antifungal activity against Candida orthopsilosis clinical isolate bloodstream form assessed as induction of fungal killing rate at 0.03 to 32 mg/L measured at 6 hrs by time-kill assay; type: functional, organism-based
# [33] = system: Candida metapsilosis; test: Antifungal activity against Candida metapsilosis clinical isolate bloodstream form assessed as induction of fungal killing rate at 0.03 to 32 mg/L measured at 6 hrs by time-kill assay; type: functional, organism-based
# [34] = system: Candida metapsilosis; test: Antifungal activity against Candida metapsilosis clinical isolate bloodstream form assessed as mild induction of fungal death at 0.03 to 32 mg/L after 6 hrs by time-kill assay; type: functional, organism-based
# [35] = system: Candida orthopsilosis; test: Antifungal activity against Candida orthopsilosis clinical isolate bloodstream form assessed as mild induction of fungal death at 0.03 to 32 mg/L after 6 hrs by time-kill assay; type: functional, organism-based
# [36] = system: Candida orthopsilosis; test: Antifungal activity against Candida orthopsilosis clinical isolate bloodstream form assessed as time required for 50% reduction in fungal growth at 0.25 mg/L by time-kill assay; type: functional
# [37] = system: Candida orthopsilosis; test: Antifungal activity against Candida orthopsilosis clinical isolate bloodstream form assessed as time required for 50% reduction in fungal growth at 1 mg/L by time-kill assay; type: functional
# [38] = system: Candida orthopsilosis; test: Antifungal activity against Candida orthopsilosis clinical isolate bloodstream form assessed as time required for 50% reduction in fungal growth at 4 mg/L by time-kill assay; type: functional
# [39] = system: Candida orthopsilosis; test: Antifungal activity against Candida orthopsilosis clinical isolate bloodstream form assessed as time required for 90% reduction in fungal growth at 1 mg/L by time-kill assay; type: functional
# [40] = system: Candida orthopsilosis; test: Antifungal activity against Candida orthopsilosis clinical isolate bloodstream form assessed as time required for 90% reduction in fungal growth at 4 mg/L by time-kill assay; type: functional
# [41] = system: Candida orthopsilosis; test: Antifungal activity against Candida orthopsilosis clinical isolate bloodstream form assessed as time required for 90% reduction in fungal growth at 16 mg/L by time-kill assay; type: functional
# [42] = system: Candida orthopsilosis; test: Antifungal activity against Candida orthopsilosis clinical isolate bloodstream form assessed as time required for 99% reduction in fungal growth at 1 mg/L by time-kill assay; type: functional
structure (smiles),measurement,setting,value
"CCCCCOc1ccc(-c2ccc(-c3ccc(C(=O)N[C@H]4C[C@@H](O)[C@@H](O)NC(=O)[C@@H]5[C@@H](O)[C@@H](C)CN5C(=O)[C@H]([C@@H](C)O)NC(=O)[C@H]([C@H](O)[C@@H](O)c5ccc(O)cc5)NC(=O)[C@@H]5C[C@@H](O)CN5C(=O)[C@H]([C@@H](C)O)NC4=O)cc3)cc2)cc1 [ANIDULAFUNGIN] ({pTerphenylCO(4''-OnC5H11)}-[Orn(4R-OH,5R-OH)]T[Hyp][hTyr(3S-OH,4S-OH)]T[Pro(3S-OH,4S-Me)]; lactam 1-C)",Time,[1],>48 h
same,Time,[2],27.25 h
same,Time,[3],18.73 h
same,Time,[4],7.74 h
same,Time,[5],2.39 h
same,Time,[6],1.51 h
same,Time,[7],25.71 h
same,Time,[8],5.22 h
same,Time,[9],7.94 h
same,Time,[10],4.69 h
same,Time,[11],10.44 h
same,Time,[12],15.89 h
same,Time,[13],77.12 h
same,Time,[14],15.03 h
same,Time,[15],14.06 h
same,Time,[16],inactive
same,Time,[17],7.84 h
same,Time,[18],4.2 h
same,Time,[19],inactive
same,Time,[20],26.04 h
same,Time,[21],inactive
same,Time,[22],inactive
same,Time,[23],inactive
same,Time,[24],inactive
same,Time,[25],>48 h
same,Time,[26],15.67 h
same,MIC,[27],0.25 µg/mL
same,MIC,[28],0.06 µg/mL
same,MIC,[29],0.06 µg/mL
same,MIC,[30],0.03 µg/mL
same,inhibition,[31],inactive
same,Activity,[32],inactive
same,Activity,[33],inactive
same,Activity,[34],Active
same,Activity,[35],Active
same,Time,[36],17.4 h
same,Time,[37],6.36 h
same,Time,[38],2.73 h
same,Time,[39],21.14 h
same,Time,[40],9.08 h
same,Time,[41],6.24 h
same,Time,[42],42.28 h
CC[C@H](C)C[C@H](C)CCCCCCCCC(=O)N[C@H]1C[C@@H](O)[C@@H](NCCN)NC(=O)[C@@H]2[C@@H](O)CCN2C(=O)[C@H]([C@H](O)CCN)NC(=O)[C@H]([C@H](O)[C@@H](O)c2ccc(O)cc2)NC(=O)[C@@H]2C[C@@H](O)CN2C(=O)[C@H]([C@@H](C)O)NC1=O [CASPOFUNGIN],Time,[1],>48 h
same,Time,[2],34.05 h
same,Time,[3],38.46 h
same,Time,[4],>48 h
same,Time,[5],7.7 h
same,Time,[6],2.59 h
same,Time,[7],>48 h
same,Time,[8],>48 h
same,Time,[9],25.58 h
same,Time,[10],6.6 h
same,Time,[11],>48 h
same,Time,[12],>48 h
same,Time,[13],>48 h
same,Time,[14],25.82 h
same,Time,[15],19.8 h
same,Time,[16],>48 h
same,Time,[17],2.59 h
same,Time,[18],1.99 h
same,Time,[19],>48 h
same,Time,[20],8.61 h
same,Time,[21],>48 h
same,Time,[22],>48 h
same,Time,[23],>48 h
same,Time,[24],>48 h
same,Time,[25],>48 h
same,Time,[26],>48 h
same,MIC,[27],2 µg/mL
same,MIC,[28],0.25 µg/mL
same,MIC,[29],0.5 µg/mL
same,MIC,[30],0.12 µg/mL
same,inhibition,[31],inactive
same,Activity,[32],inactive
same,Activity,[33],inactive
same,Activity,[34],Active
same,Activity,[35],Active
same,Time,[36],17.5 h
same,Time,[37],7.45 h
same,Time,[38],3.42 h
same,Time,[39],24.75 h
same,Time,[40],11.35 h
same,Time,[41],12.82 h
same,Time,[42],>48 h
